Data: patent publication US20090197957A1, “Methods and compositions for the treatment of pain” (Nuon Therapeutics, Inc., priority 2005, published 2009)

How the values were obtained:
[1] = tested on: T-cells; assay: Cytokine production by stimulated T cells in vitro (ELISA); format: cell-based; details: anti-CD3/anti-CD28 stimulation, graded concentrations
Protocol: FIG. 7 is a graphical representation depicting that 3,4-DAA and 3-HAA inhibit B and T cell proliferation in vitro. Purified B and T cells were stimulated for 72 h with anti-CD40 (a), or anti-CD3/anti-CD28 (b) respectively, in the presence of varying doses of 3,4-DAA, or 3-HAA.
A single cell suspension was prepared by pushing splenic tissue through a cell strainer, and erythrocytes were lysed using an ammonium chloride solution (Sigma, St Louis, Mo.). B cells were positively enriched by using anti-IgM microbeads (BD Pharmingen), and T cells were positively enriched using anti-CD4 MACS microbeads, according to the manufacturer's guidelines (Miltenyi Biotec, Bergisch Gladbach, Germany). Purity was assessed by flow cytometric analysis (B cell>90% CD19+, T cell>90% CD4+). Cells were cultured at 5×10^5 cells/ml in 200 μl complete RPMI, as above, in a flat bottom 96-well plate and cultured for 72 h. B cells were stimulated with anti-CD40 monoclonal antibody (10 μg/ml; BD), and T cells were stimulated with 5 μg/ml plate-bound anti-CD3 (ebiosciences) plus 5 μg/ml soluble anti-CD28 (ebiosciences). 3,4-DAA, 3-HAA, or vehicle (DMSO) was added at graded concentrations immediately prior to stimulation. 48 hours after stimulation, 100 μl culture medium was collected, and cells were pulsed with 1 μCi ^3H thymidine per well for 18 h. Cells were then harvested and plates assessed for thymidine incorporation. Each assay was performed on a minimum of 3 occasions. IFN-γ, IL-10 and IL-5 levels were assessed in the culture medium by ELISA, as above.
Activation of purified B (FIG. 7a) and T cells (FIG. 7b) was induced by anti-CD40, and anti-CD3/CD28 respectively, and proliferation was assessed by ^3H-thymidine incorporation. […] Inhibition of proliferation was also observed when B cells were stimulated with LPS or anti-IgM. […] It was concluded that the effects of 3,4-DAA and 3-HAA on T and B cells in vitro were remarkably similar, though not identical. It is of also note that 3-HAA had no action on inflammation or allodynia, when administered therapeutically in CIA at doses of up to 400 mg/kg/day.

[2] = tested on: established CIA; assay: Treatment of established collagen-induced arthritis (clinical score, paw swelling, histology, relapse); format: in vivo, DBA/1 mice
Protocol: FIG. 2 is a graphical representation of the treatment of established CIA with 3,4-DAA. DBA/1 mice were immunised with type II collagen in CFA and monitored for development of arthritis. On day 1 of arthritis, mice were injected intraperitoneally with 3,4-DAA on a daily basis. Paw thickness was measured with callipers. The clinical scoring system was as follows: 0=normal, 1=slight swelling and/or erythema, and 2=pronounced oedematous swelling. Each limb was graded, giving a maximum score of 8 per mouse. Histological assessment of arthritis was carried out on haematoxylin and eosin stained sections using a scoring system as follows: 0, normal; 1, minimal synovitis without cartilage/bone erosion; 2, synovitis with some marginal erosion but joint architecture maintained; 3, severe synovitis and erosion with loss of normal joint architecture. There were 14 mice/group (data pooled from two separate experiments).
FIG. 5 is a graphical representation of the relapse of arthritis 4 days after cessation of therapy. Mice with established CIA (n=6) were treated with 3,4-DAA (400 mg/kg/day) from days 1 to 5 of arthritis and clinical severity of arthritis was monitored up to day 12. Arthritis is seen to relapse at around day 9.
Type II collagen was purified from bovine cartilage, as described [Williams 2004, Methods Mol. Med. 98:207-216] and solubilized by stirring overnight at 4° C. in acetic acid (0.1M) or Tris buffer (0.05 M Tris, containing 0.2 M NaCl, pH 7.4). 3,4-DAA was synthesised by Angiogen Pharmaceuticals Pty. Ltd. For in vivo studies 3,4-DAA was dissolved at a maximum concentration of 10 mg/ml in 1% sodium bicarbonate by heating for 1 h at 70° C. Upon cooling, an emulsion was formed. For in vitro studies 3,4-DAA was dissolved in dimethyl sulphoxide (DMSO). 3-Hydroxy-anthranilic acid (3-HAA) was purchased from Sigma (Poole, UK) and dissolved in PBS.
Male DBA/1 mice (8-12 weeks old) were immunized intradermally at the base of the tail with bovine type II collagen (200 μg) emulsified in complete Freund's adjuvant (CFA; Difco, West Molesley, UK). Arthritis was monitored clinically using the following scoring system: 0=normal, 1=slight swelling and/or erythema, and 2=pronounced oedematous swelling. Each limb was graded, giving a maximum score of 8 per mouse. In addition, paw-swelling was measured using callipers.
Histopathological assessment of arthritis was carried out in a ‘blinded’ fashion on decalcified haematoxylin and eosin stained sections using a scoring system as follows: 0, normal; 1, minimal synovitis without cartilage/bone erosion; 2, synovitis with some marginal erosion but joint architecture maintained; 3, severe synovitis and erosion with loss of normal joint architecture. This research was approved by the local ethical review process committee and by the Home Office of Great Britain.
The ability of 3,4-DAA to treat established CIA was tested. Mice were immunised with type II collagen in CFA. On day 1 of clinical arthritis (the day that arthritis was first observed) mice were randomly assigned to different treatment groups and given 3,4-DAA (100 mg/kg/day, 200 mg/kg/day or 400 mg/kg/day) or vehicle alone over a 10 day period. […] Significant differences between 3,4-DAA treated and control mice were observed from day 3 until the end of the treatment period (day 10). On day 10 the mice were killed and the first paw to show clinical evidence of arthritis was processed for histology. Joints were examined ‘blindly’ for severity of inflammation and joint erosion.
Therefore, it is clearly of interest to establish what happens in vivo when treatment with 3,4-DAA is stopped. Is there a disease flare and if so, does it occur immediately after cessation of treatment? […] Treatment was then stopped and mice were monitored for a further 7 days.

[3] = established CIA, 100, 200 or 400 mg/kg/day over 10 days
[4] = up to 10 days therapy, 3,4-DAA 200 mg/kg/day, dexamethasone 0.5 mg/kg/2 days

Compound	IFN-γ production by T-cells [1]	IL-5 production by T-cells [1]	IL-10 production by T-cells [1]	arthritis severity during the treatment period ([2]; 400 mg/kg/day from day 1 to day 5 of arthritis)	day of arthritis on which exacerbation/relapse was observed after treatment stopped on day 5 ([2]; 400 mg/kg/day from days 1 to 5, monitored up to day 12) [days]	clinical scores [2, 3]	paw-swelling [2, 3]	histological severity of arthritis ([2]; established CIA, 100, 200 or 400 mg/kg/day, day 10)	clinical score [2, 4]	paw swelling [2, 4]	action on inflammation in CIA ([2]; administered therapeutically at doses of up to 400 mg/kg/day)
COc1ccc(/C=C/C(=O)Nc2ccccc2C(=O)O)cc1OC [Tranilast, 2-[[3-(3,4-dimethoxyphenyl)-1-oxo-2-propenyl]amino]benzoic acid]	dose-dependently reduced	dose-dependently inhibited	dose-dependently inhibited	dramatic reduction	9	dose-dependent reduction	dose-dependent reduction	dose-dependent reduction	significantly reduced	significantly reduced	–
Nc1c(O)cccc1C(=O)O [3-Hydroxyanthranilic acid]	dose-dependently reduced	increased	increased	–	–	–	–	–	–	–	no action
